Results published in patent publication US20090203695A1, “Compounds IV” (Biovitrum AB, priority 2007, published 2009).

Key:
JEG-3 cells [1] = experiment: [3H]-thymidine incorporation in JEG-3 cells (JEG-3 protocol); type: cell-based
Description: In JEG-3 cells (choriocarcinoma cell line) leptin is able to stimulate proliferation up to 3 fold (Biol. Reprod. (2007) 76: 203-10). […] The radioactivity incorporated by the cells is an index of their proliferative activity and is measured in counts per minute (CPM) with a liquid scintillation beta counter.
This finding can be applied to test whether a compound is able to either reproduce the effect of leptin on cell proliferation (leptin receptor agonist mimetic) (i.e., a given compound will cause an increase in incorporated [^3H]-Thymidine by the cells) or to inhibit the effect of leptin (antagonistic effect) by preventing the leptin-mediated increase in [^3H]-thymidine incorporation.
This approach has the advantage of using a non-recombinant system and has reasonable reproducibility and robustness.

JEG-3 cells [2] = conditions: JEG-3 cells (choriocarcinoma cell line); Biol. Reprod. (2007) 76: 203-10; cited from earlier work

EC50 (JEG-3 cells [1]; FIG. 4, read-out: EC50, increase in [3H]-thymidine incorporation): 2.1 nM
Substance: Leptin: hormone synthesized in fat cells that is believed to act in the hypothalamus to reduce food intake and body weight
concentration of maximal effect on [3H]-thymidine incorporation (JEG-3 cells [1]; FIG. 4): 100 nM | stimulation of proliferation (JEG-3 cells [2]): up to 3 fold
